In ChEMBL document CHEMBL1129890, “Synthesis and evaluation of dual action cephalosporins as elastase inhibitors” (Bioorg Med Chem Lett, 1997):

Assays:
[1] = Steady state velocity of inhibitor concentration required to inhibit porcine pancreatic elastase was determined by using Dixon Plot; design: species or system Sus scrofa
[2] = Steady state velocity of inhibitor concentration required to inhibit porcine pancreatic elastase was determined by using Lineweaver-Burke Plot; design: species or system Sus scrofa
[3] = Hydrolytic stability was expressed as t1/2; format: physicochemical

Compound | IC50 [1] | IC50 [2] | half-life [3]
CO[C@H]1C(=O)N2C(C(=O)OC(C)(C)C)=C(C)CS(=O)(=O)C12 (some centres undefined) | 11000 nM | 73000 nM | 
CC1=C(C(=O)OC(C)(C)C)N2C(=O)[C@H](Cl)C2S(=O)(=O)C1 (some centres undefined) | 11000 nM | 35000 nM | 
CC(C)(C)OC(=O)C1=C(COC(=O)Cc2ccccc2Nc2c(Cl)cccc2Cl)CS(=O)(=O)C2[C@@H](Cl)C(=O)N12 (some centres undefined) | 680 nM | 180 nM | 73 h
CC(=O)Oc1ccccc1C(=O)OCC1=C(C(=O)OC(C)(C)C)N2C(=O)[C@H](Cl)C2S(=O)(=O)C1 (some centres undefined) | 350 nM | 250 nM | 2.3 h
CO[C@H]1C(=O)N2C(C(=O)OC(C)(C)C)=C(COC(=O)c3ccccc3OC(C)=O)CS(=O)(=O)C12 (some centres undefined) |  | 110 nM | 19 h
CO[C@H]1C(=O)N2C(C(=O)OC(C)(C)C)=C(COC(=O)Cc3ccccc3Nc3c(Cl)cccc3Cl)CS(=O)(=O)C12 (some centres undefined) |  | 110 nM | 60 h
